Assay results reported in ChEMBL document CHEMBL4043221, “Natural neuro-inflammatory inhibitors from Caragana turfanensis” (Bioorg Med Chem Lett, 2017).

Columns and labels:
BV-2 [1] = experiment: Antineuroinflammatory activity in mouse BV2 cells assessed as inhibition of LPS-induced NO production after 24 hrs in presence of LPS by Griess reaction based assay; assay type: functional, cell-based; settings: BV-2, 24 h
BV-2 [2] = experiment: Cytotoxicity against mouse BV2 cells assessed as reduction in cell viability at 1 to 100 uM after 24 hrs in presence of LPS by MTT assay; assay type: cell-based; settings: bv-2, 24 h

SMILES | IC50 (BV-2 [1]) | Activity (BV-2 [2])
CC[C@H](CC[C@@H](C)[C@H]1CC[C@H]2[C@@H]3C(=O)C=C4C[C@@H](O)CC[C@]4(C)[C@H]3CC[C@]12C)C(C)C | > 100 µM | –
O=C(O)/C=C/c1ccc(O)cc1 [COUMARIC ACID] | > 100 µM | –
O=C(O)c1ccc(O)cc1 [PARABEN] | > 100 µM | –
CCCCCCCCCCCCCCCCCCOC(=O)/C=C/c1ccc(O)c(O)c1 | > 100 µM | –
CCCCCCCCCCCCCCCCCCCCCCCCCC(=O)O [HEXACOSANOIC ACID] | > 100 µM | –
C[N+](C)(C)C(Cc1c[nH]c2ccccc12)C(=O)[O-] (centres undefined) | > 100 µM | –
COc1cc([C@H]2OC[C@@H]3[C@H]2CO[C@@H]3c2cc(OC)c(O)c(OC)c2)ccc1O | > 100 µM | –
O=C1CC(c2cc(O)cc(O)c2)Oc2cc(O[C@@H]3O[C@H](CO)[C@@H](O)[C@H](O)[C@H]3O)cc(O)c21 (some centres undefined) | > 100 µM | –
CCCCCCCCCCCCCCCCCCCCCCCCOC(=O)/C=C/c1ccc(O)c(OC)c1 | > 100 µM | –
COc1cc([C@H]2OC[C@H]3[C@@H]2CO[C@H]3c2cc(OC)c(O)c(OC)c2)cc(OC)c1O | > 100 µM | –
O=C(O)c1ccc(O)c(O)c1 [PROTOCATECHUIC ACID] | > 100 µM | –
Oc1cc(O)c2c(c1)C1C(c3cc(O)cc(O)c3[C@H]1c1ccc(O)c(O)c1)[C@@H]2c1ccc(O)c(O)c1 (some centres undefined) | > 100 µM | –
COc1cc([C@@H]2OC[C@@H]3[C@H]2CO[C@H]3c2cc(OC)c(O)c(OC)c2)cc(OC)c1O | > 100 µM | –
O=C1c2ccc(O)cc2O[C@@H](c2ccc(O)c(O)c2)[C@@H]1O | > 100 µM | –
O=Cc1ccc(O)c(O)c1 [PROTOCATECHUALDEHYDE] | > 100 µM | –
COc1cc([C@H]2OC[C@H]3[C@@H]2CO[C@@H]3c2cc(OC)c(O[C@@H]3O[C@H](CO)[C@@H](O)[C@H](O)[C@H]3O)c(OC)c2)cc(OC)c1O[C@@H]1O[C@H](CO)[C@@H](O)[C@H](O)[C@H]1O [LIRIODENDRIN] | > 100 µM | –
COc1ccc(-c2coc3cc(O)cc(O)c3c2=O)cc1O [PRATENSEIN] | > 100 µM | –
O=c1c(-c2ccc(O)c(O)c2)coc2cc(O)ccc12 | > 100 µM | –
O=C(O)/C=C/c1ccccc1 [CINNAMIC ACID] | > 100 µM | –

Second part, led by results:

IC50 (BV-2 [1]) | SMILES | Activity (BV-2 [2])
> 100 µM | O=C(/C=C/c1ccc(O)cc1)c1ccc(O)cc1O [ISOLIQUIRITIGENIN] | –
> 100 µM | C=C(C)[C@@H]1CC[C@]2(C)CC[C@]3(C)[C@H](CC[C@@H]4[C@@]5(C)CC[C@H](O)C(C)(C)[C@@H]5CC[C@]43C)[C@@H]12 [LUPEOL] | –
73 µM | O=c1c(O)c(-c2ccc(O)c(O)c2)oc2cc(O)ccc12 [FISETIN] | Non-Toxic
> 100 µM | COc1ccc2c(c1)O[C@H](c1ccc(O)c(O)c1)CC2=O | –
1.01 µM | COc1cc(O)c(-c2cc3ccc(O)cc3oc2=O)cc1OC | Non-Toxic
18.5 µM | COc1ccc(-c2coc3cc(O)c(OC)cc3c2=O)cc1O [ODORATIN] | Non-Toxic
> 100 µM | O=C(O)/C=C/c1ccccc1O [O-COUMARIC ACID] | –
72.6 µM | O=C(C[C@@H](O)c1ccc(O)c(O)c1)c1ccc(O)cc1O | Non-Toxic
39.6 µM | COc1ccc(-c2coc3cc(O)ccc3c2=O)cc1O [CALYCOSIN] | Non-Toxic
9.07 µM | CN(C)c1ccc(O)c2c1C[C@H]1C[C@H]3[C@H](N(C)C)C(O)=C(C(N)=O)C(=O)[C@@]3(O)C(O)=C1C2=O [MINOCYCLINE] | –
76.2 µM | COc1cc([C@H]2OC[C@H]3[C@@H]2CO[C@@H]3c2ccc(O)c(OC)c2)ccc1O | Non-Toxic
80.5 µM | Oc1cc(O)cc(/C=C/c2ccc(O)c(O)c2)c1 [PICEATANNOL] | Non-Toxic
18.7 µM | Oc1ccc(/C=C/c2cc(O)cc(O)c2)cc1 [RESVERATROL] | Non-Toxic
13.2 µM | COc1ccc(-c2coc3cc(O)ccc3c2=O)cc1 [FORMONONETIN] | Non-Toxic
6.87 µM | COc1ccc(-c2coc3c(O)c(O)ccc3c2=O)cc1O | Non-Toxic
